What is called MIC is the smallest concentration in the dilution series that meets the test's criterion for growth inhibition.

Structures are written as SMILES. Converted amounts (≈) assume the structure as drawn.

The record followed here is patent US7230023B2, “Water-soluble triazole fungicide” (Sankyo Company, Limited, priority 2001, dated 2007).

Series [1] deals with human liver microsome preparation. The experiment in a line: Test to confirm formation of active substance: incubation with human liver microsome preparation, HPLC. Type of series: in vitro ADME. To be noted: human liver microsome preparation 0.5 mg protein/ml, initial concentration 1 μM, 37° C. On the procedure:
The test compound was dissolved in a human liver microsome preparation (0.5 mg protein/ml, GENTEST Corporation) at an intial concentration of 1 μM and the mixture was incubated at 37° C.
A small aliquot of the sample was collected at certain time intervals, and the rate of persistence of the original compound and the rate of formation of compound A, the active substance with the chemical structure shown below, were determined by HPLC.
The results of incubating the compound of Example 5 (the disodium salt of example number 5-16) with the human liver microsome preparation are shown in FIG. 1.
(In general: Liver microsomes are vesicles of endoplasmic reticulum, rich in cytochrome P450 enzymes.)

The subject of series [2] is Candida albicans ATCC 64550. Nature of the series: Antifungal activity against Candida, MIC by broth microdilution. Type of series: cell-based. To be noted: ATCC64550, RPMI1640 pH 7.0, 35° C., 24-72 hours, at least 80% growth inhibition, read-out: MIC values C.a. (1). On the procedure:
(§1) The antifungal activities of compound A were assessed according to the minimum inhibitory concentrations (MICs) which were measured by the methods described below:
(§2) Determination of antifungal activity against Candida: The MICs were determined by the broth microdilution method. Test compound was dissolved in dimethyl sulfoxide (DMSO). Serial two-fold dilution of the test compound was performed with DMSO, and then the final dilution was performed with RPMI1640 medium (product of Dainippon Pharmaceutical Co., Ltd.) which was buffered to pH 7.0 with 0.165M 3-(morpholino)propanesulfonic acid (MOPS). […] Colonies of the test fungi were suspended in physiological saline followed by adjustment to 5.0×10^2 to 2.5×10^3 cells/ml with RPMI1640 medium which was buffered to pH 7.0 with 0.165M MOPS. 100 μl of the fungal suspension and 100 μl of each diluted test compound solution were mixed in each well of microtitre plates, before incubating at 35° C. for 24-72 hours. […] The MICs were defined as the lowest compound concentrations causing at least 80% growth inhibition when compared with the control.

The subject of series [3] is Candida albicans TIMM 3164. The series is described as above. Type of series: cell-based. To be noted: TIMM3164, RPMI1640 pH 7.0, 35° C., 24-72 hours, at least 80% growth inhibition, read-out: MIC values C.a. (2). On the procedure: as §1, §2
In series [4] the test system is Candida albicans TIMM 3165. Described as above. Type of series: cell-based. To be noted: TIMM3165, RPMI1640 pH 7.0, 35° C., 24-72 hours, at least 80% growth inhibition, read-out: MIC values C.a. (3). On the procedure: as §1, §2
Series [5] deals with Cryptococcus neoformans TIMM 0362. The experiment in a line: Antifungal activity against Cryptococcus neoformans, MIC by broth microdilution. Type of series: cell-based. To be noted: TIMM0362, yeast nitrogen base medium pH 7.0, 35° C., 48-72 hours, at least 50% growth inhibition, absorbance at 485 nm, read-out: MIC values C.n. The procedure: as §1
Determination of antifungal activity against Cryptococcus neoformans: MICs were determined by the broth microdilution method. Test compound was dissolved in DMSO. Serial two-fold dilution of the test compound was performed with DMSO, and the final dilution was performed with yeast nitrogen base medium (product of Difco Laboratories) buffered to pH 7.0 with 0.165M MOPS. […] Colonies of the test fungi were suspended in physiological saline followed by adjustment to 5.0×10^3 to 2.5×10^4 cells/ml with yeast nitrogen base medium buffered to pH 7.0 with 0.165M MOPS. 100 μl of the fungal suspension and 100 μl of each diluted test compound solution were mixed in each well of microtitre plates, before incubating at 35° C. for 48-72 hours. […] The MICs were defined as the lowest compound concentrations causing at least 50% growth inhibition when compared with the control as measured by light absorbance at 485 nm.
In general terms: Broth dilution looks for growth in wells or tubes with falling amounts of substance.

In series [6] the test system is Aspergillus fumigatus SANK 10569. Nature of the series: Antifungal activity against Aspergillus, MIC by broth microdilution. The format is cell-based. Particulars: SANK10569, RPMI1640 pH 7.0, 30° C., 24-72 hours, at least 80% growth inhibition, read-out: MIC values A.f. On the procedure: as §1
as §2, with “Aspergillus:” for “Candida: The”, “DMSO.” for “dimethyl sulfoxide (DMSO).”, “MOPS.” for “3-(morpholino)propanesulfonic acid (MOPS).”, “about 1.0×10^4” for “5.0×10^2 to 2.5×10^3”, “30°” for “35°”

`C[C@@H](S[C@H]1CO[C@H](/C=C/C=C/c2ccc(C#N)cc2F)OC1)[C@@](Cn1cncn1)(OC(=O)c1cc(C#N)ccc1COP(=O)([O-])[O-])c1ccc(F)cc1F.[Na+].[Na+]` [Example 5, Disodium 4-cyano-2-[[(1R,2R)-2-[[trans-2-[(1E,3E)-4-(4-cyano-2-fluorophenyl)-1,3-butadienyl]-1,3-dioxan-5-yl]thio]-1-(2,4-difluorophenyl)-1-[(1H-1,2,4-triazol-1-yl)methyl]propoxy]carbonyl]benzyl phosphate]: the “rate of persistence of the original compound” value in series [1] was “diminished immediately after the incubation started”. In series [1] (after incubation for 30 min), the “rate of formation of compound A (active substance)” value was “completely converted to compound A”.
Turning to `C[C@@H](S[C@H]1CO[C@H](/C=C/C=C/c2ccc(C#N)cc2F)OC1)[C@](O)(Cn1cncn1)c1ccc(F)cc1F` [Compound A], the minimum inhibitory concentration (MIC) in series [2] was 0.25 µg/mL (≈ 0.461 µM); in series [3], ≤ 8 ng/mL; in series [4], 0.063 µg/mL (≈ 0.116 µM); in series [5] it was ≤ 8 ng/mL; in series [6], 0.031 µg/mL (≈ 0.0571 µM).
